Data taken from the CheMixHub viscosity set.

Test: xn = mol fraction of the nth substance listed

CCCCBr + CC(C)CO
viscosity [mPa·s], 101.33 kPa
Settings	x2 = 0.101	x2 = 0.2014	x2 = 0.308	x2 = 0.4025	x2 = 0.5066	x2 = 0.61	x2 = 0.7006	x2 = 0.8004	x2 = 0.8984
298.15 K	0.626	0.671	0.743	0.83	0.98	1.196	1.436	1.845	2.449
308.15 K	0.549	0.576	0.624	0.682	0.783	0.934	1.1	1.387	1.807
318.15 K	0.492	0.512	0.555	0.593	0.664	0.774	0.895	1.098	1.389

CC(=O)OC(C)C + Cc1cccc(C)c1
viscosity [mPa·s], 101 kPa
Settings	x1 = 0.0998	x1 = 0.212	x1 = 0.3176	x1 = 0.4048	x1 = 0.5079	x1 = 0.6118	x1 = 0.7201	x1 = 0.8193	x1 = 0.9305
303.15 K	0.544	0.53	0.518	0.509	0.499	0.489	0.481	0.474	0.466
313.15 K	0.488	0.475	0.464	0.456	0.447	0.438	0.43	0.423	0.417

CCCC(C)O (configuration not stated) + C1CCCCC1
303.15 K, 101.33 kPa
Settings	viscosity [mPa·s]
x1 = 0.1049	0.874
x1 = 0.2028	0.94
x1 = 0.3035	1.03
x1 = 0.4031	1.151
x1 = 0.5017	1.306
x1 = 0.6043	1.534
x1 = 0.6903	1.772
x1 = 0.801	2.116
x1 = 0.9115	2.521

COCCO + CC(C)=O
viscosity [mPa·s], 101.33 kPa
Settings	293.15 K	298.15 K	303.15 K
x1 = 0.0508	0.373	0.356	0.342
x1 = 0.1006	0.439	0.416	0.397
x1 = 0.1509	0.507	0.477	0.453
x1 = 0.2015	0.563	0.527	0.5
x1 = 0.2496	0.613	0.572	0.541
x1 = 0.2998	0.652	0.607	0.574
x1 = 0.351	0.688	0.64	0.603
x1 = 0.3995	0.726	0.673	0.632
x1 = 0.4503	0.767	0.709	0.663
x1 = 0.5006	0.818	0.753	0.7
x1 = 0.5504	0.875	0.804	0.742
x1 = 0.6007	0.941	0.861	0.79
x1 = 0.6496	1.012	0.923	0.845
x1 = 0.6998	1.09	0.991	0.905
x1 = 0.7502	1.17	1.062	0.969
x1 = 0.8004	1.248	1.132	1.033
x1 = 0.8511	1.333	1.209	1.106
x1 = 0.8999	1.419	1.287	1.179
x1 = 0.9503	1.542	1.398	1.278

CCOC(=O)C(=O)OCC + ClC(Cl)(Cl)Cl
303.15 K, 101 kPa
Settings	viscosity [mPa·s]
x1 = 0.0736	0.915
x1 = 0.1516	0.997
x1 = 0.2345	1.074
x1 = 0.3227	1.155
x1 = 0.4171	1.24
x1 = 0.5177	1.323
x1 = 0.6259	1.402
x1 = 0.7414	1.482
x1 = 0.8658	1.574

CC(=O)OC(C)C + Cc1ccc(C)cc1
viscosity [mPa·s], 101 kPa
Settings	303.15 K	308.15 K	313.15 K
x1 = 0.0984	0.554	–	0.502
x1 = 0.2017	0.541	–	0.489
x1 = 0.3126	0.527	–	0.476
x1 = 0.4038	0.515	–	0.465
x1 = 0.5039	0.505	–	0.455
x1 = 0.6015	0.495	–	0.446
x1 = 0.7028	0.487	–	0.437
x1 = 0.8113	0.477	–	0.427
x1 = 0.9523	0.464	–	0.417
x2 = 0.1061	–	0.4401	–
x2 = 0.2201	–	0.4568	–
x2 = 0.2975	–	0.4636	–
x2 = 0.3892	–	0.4726	–
x2 = 0.4985	–	0.4819	–
x2 = 0.5821	–	0.4898	–
x2 = 0.696	–	0.5019	–
x2 = 0.7973	–	0.5123	–
x2 = 0.8976	–	0.5215	–

C#CC(C)(C)O + O
viscosity [mPa·s], 101.32 kPa
Settings	x1 = 0.1001	x1 = 0.2003	x1 = 0.3009	x1 = 0.4001	x1 = 0.5004	x1 = 0.602	x1 = 0.7044	x1 = 0.8017	x1 = 0.9005
308.15 K	1.612	2.02	2.2	2.289	2.308	2.297	2.254	2.21	2.152
313.15 K	1.403	1.78	1.92	1.973	1.986	1.968	1.928	1.898	1.838
318.15 K	1.24	1.56	1.67	1.7	1.719	1.712	1.669	1.643	1.582
323.15 K	1.105	1.369	1.45	1.483	1.498	1.486	1.449	1.424	1.376

COCCO + Cc1ccc(C)cc1
viscosity [mPa·s], 101 kPa
Settings	298.15 K	308.15 K
x1 = 0.0528	0.626	0.549
x1 = 0.1469	0.654	0.57
x1 = 0.2507	0.696	0.601
x1 = 0.3484	0.746	0.639
x1 = 0.4499	0.812	0.688
x1 = 0.4999	0.85	0.716
x1 = 0.5542	0.897	0.75
x1 = 0.6493	0.994	0.82
x1 = 0.7508	1.122	0.913
x1 = 0.8478	1.274	1.021
x1 = 0.9556	1.488	1.17

CCCCNCCCC + CCCCOCCO
viscosity [mPa·s], 100 kPa
Settings	298.15 K	303.15 K	308.15 K
x2 = 0.0501	0.94	0.85	0.8
x2 = 0.1169	1.1	1.01	0.93
x2 = 0.1502	1.19	1.07	1
x2 = 0.2006	1.34	1.17	1.08
x2 = 0.3001	1.58	1.35	1.25
x2 = 0.4001	1.82	1.55	1.43
x2 = 0.5	2.14	1.83	1.63
x2 = 0.5999	2.42	2.12	1.84
x2 = 0.6998	2.7	2.33	2.09
x2 = 0.8	2.97	2.5	2.28
x2 = 0.8965	3.1	2.61	2.38
x2 = 0.95	2.97	2.56	2.32

COCCO + CCOC(C)=O
viscosity [mPa·s], 101 kPa
Settings	x1 = 0.0974	x1 = 0.1945	x1 = 0.2964	x1 = 0.3997	x1 = 0.4973	x1 = 0.5922	x1 = 0.6956	x1 = 0.8008	x1 = 0.9012
298.15 K	0.47	0.514	0.572	0.644	0.736	0.838	0.992	1.19	1.421
303.15 K	0.444	0.484	0.536	0.601	0.683	0.775	0.912	1.086	1.286
308.15 K	0.42	0.456	0.514	0.564	0.636	0.719	0.84	0.994	1.173

CCCCBr + CC(C)(C)O
viscosity [mPa·s], 101.33 kPa
Settings	x2 = 0.0988	x2 = 0.197	x2 = 0.3014	x2 = 0.4101	x2 = 0.5017	x2 = 0.5982	x2 = 0.7029	x2 = 0.7982	x2 = 0.8931
298.15 K	0.597	0.612	0.643	0.692	0.798	0.926	1.148	1.509	2.232
303.15 K	0.564	0.576	0.602	0.642	0.736	0.839	1.018	1.302	1.841
308.15 K	0.534	0.54	0.563	0.598	0.679	0.763	0.909	1.134	1.543
313.15 K	0.508	0.511	0.529	0.557	0.632	0.7	0.817	0.995	1.311
318.15 K	0.494	0.482	0.497	0.521	0.581	0.638	0.737	0.882	1.127

CCOC(=O)C(=O)OCC + CCO
viscosity [mPa·s]
Settings	303.15 K	313.15 K	323.15 K
101 kPa, x1 = 0.1003	0.935	0.799	0.667
101 kPa, x1 = 0.2024	0.948	0.809	0.68
101 kPa, x1 = 0.3028	0.988	0.836	0.711
101 kPa, x1 = 0.4015	1.045	0.879	0.751
101 kPa, x1 = 0.4917	1.108	0.93	0.793
101 kPa, x1 = 0.5907	1.177	0.99	0.845
101 kPa, x1 = 0.6942	1.259	1.063	0.909
101 kPa, x1 = 0.8049	1.362	1.151	0.987
101 kPa, x1 = 0.903	1.484	1.233	1.061
101.33 kPa, x1 = 0.1001	0.948	–	–
101.33 kPa, x1 = 0.2004	0.968	–	–
101.33 kPa, x1 = 0.2897	1.009	–	–
101.33 kPa, x1 = 0.398	1.069	–	–
101.33 kPa, x1 = 0.5098	1.146	–	–
101.33 kPa, x1 = 0.5982	1.213	–	–
101.33 kPa, x1 = 0.6828	1.283	–	–
101.33 kPa, x1 = 0.77	1.371	–	–
101.33 kPa, x1 = 0.8931	1.515	–	–

CC(CC(C)(C)C)CC(C)(C)CC(C)(C)C (configuration not stated) + CCCCCCCCCCCCCCCC
298.15 K, 101.33 kPa
Settings	viscosity [mPa·s]
x2 = 0.0974	3.252
x2 = 0.2011	3.181
x2 = 0.3015	3.128
x2 = 0.3995	3.09
x2 = 0.4995	3.064
x2 = 0.6002	3.05
x2 = 0.7004	3.045
x2 = 0.8	3.049
